Reference: PubChem BioAssay AID220 (DTP/NCI, 2004)
Values joined by “and” are separate entries in the source; they are usually repeats but may differ in a detail not shown here. Identical values can stand only once. Inconclusive results are not listed.

Test system: CD8F1 mice, subcutaneous mammary adenocarcinoma, T/C%
Experiment: NCI In Vivo Anticancer Drug Screen. Data for tumor model Mammary Adenocarcinoma CD8F1 (subcutaneous) in CD8F1
Conditions: higher = larger tumour
Protocol: The antitumor activity of compounds was measured in mice bearing transplantable tumors. Survival or tumor size were measured and the results are expressed as the measurement made in the treated group (T) divided by the measurement made in the vehicle treated control group (C). The tumor model used in this assay is Mammary Adenocarcinoma CD8F1 (subcutaneous) in CD8F1

[1] = endpoint: median tumor weight change, dose: 62.5 mg/kg/injection, schedule: Q01DX001 (ip), vehicle: saline with Tween-80
[2] = endpoint: median tumor weight change, dose: 125.0 mg/kg/injection, schedule: Q01DX001 (ip), vehicle: Klucel (hydroxypropylcellulose) (HPC)
[3] = endpoint: median tumor weight change, dose: 500.0 mg/kg/injection, schedule: Q01DX001 (ip), vehicle: saline with Tween-80
[4] = endpoint: median tumor weight (est.), dose: 12.5 mg/kg/injection, schedule: Q07DX005 (ip), vehicle: saline with Tween-80
[5] = endpoint: median tumor weight (est.), dose: 25.0 mg/kg/injection, schedule: Q07DX005 (ip), vehicle: saline with Tween-80

COc1cc(C(C)(C)C)cc(OC)c1C(O)(c1c(OC)cc(C(C)(C)C)cc1OC)c1c(OC)cc(C(C)(C)C)cc1OC was tested, and the T/C [1] was 102 % of control, the T/C [2] was 98 % of control and the T/C (endpoint: median tumor weight change, dose: 250.0 mg/kg/injection, schedule: Q01DX001 (ip), vehicle: Klucel (hydroxypropylcellulose) (HPC)) was 62 % of control. For the same molecule, the T/C (endpoint: median tumor weight change, dose: 250.0 mg/kg/injection, schedule: Q01DX001 (ip), vehicle: saline with Tween-80) was 48 % of control and 70 % of control, the T/C (endpoint: median tumor weight change, dose: 500.0 mg/kg/injection, schedule: Q01DX001 (ip), vehicle: Klucel (hydroxypropylcellulose) (HPC)) was 67 % of control and the T/C [3] was 37 % of control and 46 % of control. For the same molecule, the T/C (endpoint: median tumor weight change, dose: 1000.0 mg/kg/injection, schedule: Q01DX001 (ip), vehicle: saline with Tween-80) was 17 % of control.

For S=C1CCCCN1, the T/C (endpoint: median tumor weight change, dose: 37.5 mg/kg/injection, schedule: Q01DX001 (ip), vehicle: distilled water + Tween-80 + alcohol) was 73 % of control, the T/C (endpoint: median tumor weight change, dose: 75.0 mg/kg/injection, schedule: Q01DX001 (ip), vehicle: distilled water + Tween-80 + alcohol) was 111 % of control and the T/C (endpoint: median tumor weight change, dose: 150.0 mg/kg/injection, schedule: Q01DX001 (ip), vehicle: distilled water + Tween-80 + alcohol) was 86 % of control.

For C=C(NC(=O)C(=C)NC(=O)c1csc(C2=NC3c4csc(n4)C4NC(=O)c5csc(n5)C(C(C)(O)C(C)O)NC(=O)C5CSC(=N5)/C(=C/C)NC(=O)C(C(C)O)NC(=O)c5csc(n5)C3(CC2)NC(=O)C(C)NC(=O)C(=C)NC(=O)C(C)NC(=O)C(C(C)CC)NC2C=Cc3c(C(C)O)cc(nc3C2O)C(=O)OC4C)n1)C(N)=O (stereo not drawn), the T/C (endpoint: median tumor weight (est.), dose: 6.25 mg/kg/injection, schedule: Q07DX005 (ip), vehicle: Klucel (hydroxypropylcellulose) (HPC)) was 72 % of control, the T/C (endpoint: median tumor weight (est.), dose: 12.5 mg/kg/injection, schedule: Q07DX005 (ip), vehicle: Klucel (hydroxypropylcellulose) (HPC)) was 64 % of control and 70 % of control and the T/C (endpoint: median tumor weight (est.), dose: 200.0 mg/kg/injection, schedule: Q07DX005 (ip), vehicle: Klucel (hydroxypropylcellulose) (HPC)) was 83 % of control and 103 % of control. The T/C (endpoint: median tumor weight (est.), dose: 400.0 mg/kg/injection, schedule: Q07DX005 (ip), vehicle: Klucel (hydroxypropylcellulose) (HPC)) was 90 % of control.

For COc1ccc(C(=O)c2no[n+]([O-])c2C(=O)c2ccc(OC)cc2)cc1, the T/C [3] was 84 % of control.

O=c1n(CC2CO2)c(=O)n(CC2CO2)c(=O)n1CC1CO1 (stereo not drawn) was tested, and the T/C (endpoint: median tumor weight (est.), dose: 12.5 mg/kg/injection, schedule: Q07DX004 (ip), vehicle: saline with Tween-80) was 64 % of control, the T/C [4] was 17 % of control and the T/C (endpoint: median tumor weight (est.), dose: 12.5 mg/kg/injection, schedule: Q07DX005 (ip), vehicle: suspension in saline) was 69 % of control and 55 % of control. For the same molecule, the T/C (endpoint: median tumor weight (est.), dose: 25.0 mg/kg/injection, schedule: Q07DX004 (ip), vehicle: saline with Tween-80) was 79 % of control, the T/C [5] was 4 % of control and the T/C (endpoint: median tumor weight (est.), dose: 50.0 mg/kg/injection, schedule: Q07DX004 (ip), vehicle: saline with Tween-80) was 42 % of control. The T/C (endpoint: median tumor weight (est.), dose: 50.0 mg/kg/injection, schedule: Q07DX005 (ip), vehicle: suspension in saline) was 12 % of control and 35 % of control.

In the case of C=C(C)[C@H]1CN[C@H](C(=O)O)[C@H]1CC(=O)O, the T/C (endpoint: median tumor weight change, dose: 3.12 mg/kg/injection, schedule: Q01DX001 (ip), vehicle: saline) is reported as 99 % of control, the T/C (endpoint: median tumor weight change, dose: 6.25 mg/kg/injection, schedule: Q01DX001 (ip), vehicle: saline) is reported as 77 % of control and the T/C (endpoint: median tumor weight change, dose: 12.5 mg/kg/injection, schedule: Q01DX001 (ip), vehicle: saline) is reported as 77 % of control. For the same molecule, the T/C (endpoint: median tumor weight change, dose: 25.0 mg/kg/injection, schedule: Q01DX001 (ip), vehicle: saline) was 73 % of control.

O=C(O)C(CSC(c1ccccc1)(c1ccccc1)c1ccccc1)N=Cc1cccs1 (stereo not drawn) was tested, and the T/C (endpoint: median tumor weight change, dose: 62.5 mg/kg/injection, schedule: Q01DX001 (ip), vehicle: suspension in saline) was 112 % of control, the T/C (endpoint: median tumor weight change, dose: 125.0 mg/kg/injection, schedule: Q01DX001 (ip), vehicle: suspension in saline) was 111 % of control and the T/C (endpoint: median tumor weight change, dose: 250.0 mg/kg/injection, schedule: Q01DX001 (ip), vehicle: saline) was 64 % of control. For the same molecule, the T/C (endpoint: median tumor weight change, dose: 250.0 mg/kg/injection, schedule: Q01DX001 (ip), vehicle: suspension in saline) was 95 % of control.

OCC1OC(n2cnc3cc(Cl)c(Cl)cc32)C(O)C1O (stereo not drawn) was tested, and the T/C [4] was 79 % of control, the T/C [5] was 89 % of control and 92 % of control and the T/C (endpoint: median tumor weight (est.), dose: 200.0 mg/kg/injection, schedule: Q07DX005 (ip), vehicle: saline with Tween-80) was 80 % of control.

With C#C[C@]1(O)CC[C@H]2[C@@H]3CCc4cc(O)ccc4[C@H]3CC[C@@]21C the T/C (endpoint: median tumor weight change, dose: 12.5 mg/kg/injection, schedule: Q01DX001 (ip), vehicle: Klucel (hydroxypropylcellulose) (HPC)) was 92 % of control, the T/C (endpoint: median tumor weight change, dose: 25.0 mg/kg/injection, schedule: Q01DX001 (ip), vehicle: Klucel (hydroxypropylcellulose) (HPC)) was 78 % of control and the T/C (endpoint: median tumor weight change, dose: 50.0 mg/kg/injection, schedule: Q01DX001 (ip), vehicle: Klucel (hydroxypropylcellulose) (HPC)) was 75 % of control. For the same molecule, the T/C (endpoint: median tumor weight change, dose: 56.0 mg/kg/injection, schedule: Q01DX001 (ip), vehicle: Klucel (hydroxypropylcellulose) (HPC)) was 60 % of control, the T/C (endpoint: median tumor weight change, dose: 100.0 mg/kg/injection, schedule: Q01DX001 (ip), vehicle: Klucel (hydroxypropylcellulose) (HPC)) was 63 % of control and the T/C (endpoint: median tumor weight change, dose: 112.0 mg/kg/injection, schedule: Q01DX001 (ip), vehicle: Klucel (hydroxypropylcellulose) (HPC)) was 75 % of control. The T/C (endpoint: median tumor weight change, dose: 200.0 mg/kg/injection, schedule: Q01DX001 (ip), vehicle: Klucel (hydroxypropylcellulose) (HPC)) was 46 % of control, the T/C (endpoint: median tumor weight change, dose: 225.0 mg/kg/injection, schedule: Q01DX001 (ip), vehicle: Klucel (hydroxypropylcellulose) (HPC)) was 66 % of control and the T/C (endpoint: median tumor weight change, dose: 400.0 mg/kg/injection, schedule: Q01DX001 (ip), vehicle: Klucel (hydroxypropylcellulose) (HPC)) was 52 % of control. The T/C (endpoint: median tumor weight change, dose: 450.0 mg/kg/injection, schedule: Q01DX001 (ip), vehicle: Klucel (hydroxypropylcellulose) (HPC)) was 101 % of control and the T/C (endpoint: median tumor weight change, dose: 450.0 mg/kg/injection, schedule: Q01DX001 (ip), vehicle: saline with Tween-80) was 101 % of control.

CC(=O)c1c(O)c(C)c(O)c2c1OC1=CC(=O)C(C(C)=O)C(=O)C12C (stereo not drawn) was tested, and the T/C (endpoint: median tumor weight (est.), dose: 12.5 mg/kg/injection, schedule: Q07DX004 (ip), vehicle: gum acacia) was 44 % of control, the T/C (endpoint: median tumor weight (est.), dose: 12.5 mg/kg/injection, schedule: Q07DX005 (ip), vehicle: gum acacia) was 95 % of control and the T/C (endpoint: median tumor weight (est.), dose: 25.0 mg/kg/injection, schedule: Q07DX004 (ip), vehicle: gum acacia) was 78 % of control. The T/C (endpoint: median tumor weight (est.), dose: 25.0 mg/kg/injection, schedule: Q07DX005 (ip), vehicle: gum acacia) was 120 % of control, the T/C (endpoint: median tumor weight (est.), dose: 50.0 mg/kg/injection, schedule: Q04DX005 (ip), vehicle: gum acacia) was 79 % of control and 97 % of control and the T/C (endpoint: median tumor weight (est.), dose: 50.0 mg/kg/injection, schedule: Q07DX004 (ip), vehicle: gum acacia) was 85 % of control. The T/C (endpoint: median tumor weight (est.), dose: 50.0 mg/kg/injection, schedule: Q07DX005 (ip), vehicle: gum acacia) was 85 % of control, the T/C (endpoint: median tumor weight (est.), dose: 100.0 mg/kg/injection, schedule: Q07DX004 (ip), vehicle: gum acacia) was 114 % of control and the T/C (endpoint: median tumor weight (est.), dose: 100.0 mg/kg/injection, schedule: Q07DX005 (ip), vehicle: gum acacia) was 74 % of control. For the same molecule, the T/C (endpoint: median tumor weight (est.), dose: 200.0 mg/kg/injection, schedule: Q07DX005 (ip), vehicle: gum acacia) was 102 % of control, the T/C (endpoint: median tumor weight (est.), dose: 400.0 mg/kg/injection, schedule: Q04DX005 (ip), vehicle: gum acacia) was 97 % of control and the T/C (endpoint: median tumor weight (est.), dose: 400.0 mg/kg/injection, schedule: Q07DX004 (ip), vehicle: gum acacia) was 42 % of control. The T/C (endpoint: median tumor weight (est.), dose: 400.0 mg/kg/injection, schedule: Q07DX005 (ip), vehicle: gum acacia) was 96 % of control.

COC1CC(CC2CCC(C)C(C(C)C(=O)O)O2)OC2(OC(C)(C3CCC(C)(C4OC(C5OC(O)(CO)C(C)CC5C)CC4C)O3)CC2C)C1C (stereo not drawn) was tested, and the T/C (endpoint: median tumor weight (est.), dose: 0.31 mg/kg/injection, schedule: Q07DX005 (ip), vehicle: Klucel (hydroxypropylcellulose) (HPC)) was 112 % of control, the T/C (endpoint: median tumor weight (est.), dose: 0.63 mg/kg/injection, schedule: Q07DX005 (ip), vehicle: Klucel (hydroxypropylcellulose) (HPC)) was 398 % of control and the T/C (endpoint: median tumor weight (est.), dose: 1.25 mg/kg/injection, schedule: Q07DX005 (ip), vehicle: Klucel (hydroxypropylcellulose) (HPC)) was 390 % of control. The T/C (endpoint: median tumor weight (est.), dose: 2.5 mg/kg/injection, schedule: Q07DX005 (ip), vehicle: Klucel (hydroxypropylcellulose) (HPC)) was 47 % of control, the T/C (endpoint: median tumor weight (est.), dose: 5.0 mg/kg/injection, schedule: Q07DX005 (ip), vehicle: Klucel (hydroxypropylcellulose) (HPC)) was 380 % of control and the T/C (endpoint: median tumor weight (est.), dose: 10.0 mg/kg/injection, schedule: Q07DX005 (ip), vehicle: Klucel (hydroxypropylcellulose) (HPC)) was 323 % of control.

With O=c1ccc2ccccc2o1 the T/C [2] was 90 % of control.

In the case of CCC1=C2C(=O)c3ccccc3C2=C(C)S(=O)(=O)O1, the T/C (endpoint: median tumor weight change, dose: 31.25 mg/kg/injection, schedule: Q01DX001 (ip), vehicle: saline with Tween-80) is reported as 120 % of control, the T/C [1] is reported as 185 % of control and the T/C (endpoint: median tumor weight change, dose: 125.0 mg/kg/injection, schedule: Q01DX001 (ip), vehicle: saline with Tween-80) is reported as 116 % of control.

CC1=CC2c3cccc4[nH]cc(c34)CC2N(C)C1 (stereo not drawn) was tested, and the T/C (endpoint: median tumor weight change, dose: 25.0 mg/kg/injection, schedule: Q01DX001 (ip), vehicle: suspension in saline) was 115 % of control.
